Earlier results, collected in US20260207569A1, “LPA1 ANTAGONISTS FOR TREATING INTERSTITIAL LUNG DISEASE” (Bristol-Myers Squibb Company, priority 2022, published 2026).

Legend:
patients with IPF = details: cited from earlier work
patients with PPF = details: 52-week study period; cited from earlier work

SMILES	Effect on decline in lung function (patients with IPF)	Progression of lung fibrosis (annual rate of decline in FVC) vs placebo (patients with PPF)
Cc1ccc(=O)n(-c2ccccc2)c1 [pirfenidone]	significantly reduce the decline in lung function	
COC(=O)c1ccc2c(c1)NC(=O)/C2=C(\Nc1ccc(N(C)C(=O)CN2CCN(C)CC2)cc1)c1ccccc1 [nintedanib]	significantly reduce the decline in lung function	slower progression of lung fibrosis than those who received placebo
